Source: patent US7897591B2, “Method of treating fatty liver disease” (priority 2005, dated 2011)

System: PPAR-α
Test: Western blot densitometry of liver PPAR-α
Type: in vivo, mouse
Details: HCD+MAR mice; nuclear + cytosolic summed; mean±SEM; P<0.02 vs HCD-only (11.5±4.4)
Description: Control animals (n=5) received normal chow and water ad libitum. All animals in the experimental groups were fed a fat-free, high carbohydrate liquid diet (HCD) ad libitum placed in one bottle per cage as previously described (3, 62). No additional sources of nutrition or hydration were provided. The HCD liquid solution contained 20% dextrose, a commercial mixture of 2% essential and nonessential amino acids (TrophAmine, B. Braun Medical, Irvine, Calif.), 2 ml trace elements (Trace Elements Injection 4, USP—Pediatric, American Regent Shirley, N.Y.), and 5 ml multivitamins (M.V.I. Pediatric™, Mayne Pharma, Paramus, N.J.). Each liter of HCD contained 30 meq sodium, 20 meq potassium chloride, 15 meq calcium, 10 meq magnesium, and 10 mM phosphate. The bottles were replaced daily with fresh HCD solution. HCD animals (n=5) received HCD only and no additional treatment for 19 days. The HCD+MAR animals (n=15) additionally received 100 mg/kg of Marimastat™ in 0.45% methylcellulose (Sigma-Aldrich Corporation, St. Louis, Mo.) vehicle twice daily via orogastric gavage. The animals were individually weighed every third day and at sacrifice. […] The assay was read at 595 nm and analyzed with Softmax® PRO Software (Molecular Devices Corporation, Sunnyvale, Calif.). 30 ug of protein per sample were analyzed by SDS-PAGE. […]

SMILES: CNC(=O)[C@@H](NC(=O)[C@H](CC(C)C)[C@H](O)C(=O)NO)C(C)(C)C [Marimastat]
- PPAR-α level, Western blot densitometry: 151.7±3.4
